Assay results: patent US20240082242A1, “COMBINATION THERAPIES” (IMBRIA PHARMACEUTICALS, INC., priority 2021, published 2024)

Columns and labels:
[1] = system: TAC-induced heart failure in mice; test: Transverse aortic constriction (TAC) model of heart failure; type: in vivo, mouse; conditions: for left ventricular fractional shortening (FS) at Week 6: CV-8972 10, CV-8814 7.5 mg/kg/day, control 34%±3%; for fibrosis of myocardial tissue after six weeks: Masson's trichome, percentage of fibrotic heart tissue, control 10.7±1; for isovolumic relaxation time (IVRT) at Week 6: control 35±1; for isovolumic relaxation time (IVRT) at the three-week assessment: control 36±1; for left ventricular ejection fraction (EF) throughout the six-week study: minipump
Experimental: Studies were conducted to evaluate and compare the efficacy of the reference compound TMZ with CV-8814 and CV-1018972 on ventricular remodeling, preservation of heart function and prevention of fibrosis in a transverse aortic constriction (TAC) model of heart failure in mice.
FIG. 30 is a schematic of the transverse aortic constriction (TAC) protocol used to test the ability of various compounds to protect the heart against heart failure. The aortic arc was exposed via midline incision in the chest cavity of anesthetized mice. A 27-gauge needle was tied against the transverse aorta and then promptly removed to create a ligature constriction. In vivo cardiac function was assessed by transthoracic echocardiography performed at 24-hour, 3-week, and 6-week time-points after TAC. Ventricular remodeling was determined by evaluation of heart weights (HW) and heart weight to body weight ratios (HW/BW). At study termination, hearts were excised, fixed, sectioned at 6 μm and stained with Masson's trichome. The area of fibrosis in myocardial tissue was measured by computerized planimetry on five random fields per heart. A total of 65 to 75 fields were analyzed per treatment group and differences were analyzed by Student's t-test.
Three separate studies were performed to evaluate the efficacy of single agents and combinations with metabolic enhancers in the TAC model of heart failure. In the first study, mice were treated with either trimetazidine alone or trimetazidine+nicotinamide+succinate. In the second study, mice were treated with CV-8814 alone or trimetazidine+nicotinic acid+succinate. In the third study, mice were treated with […], CV-8814, or CV-8972. Overall, the activities of trimetazidine, CV-8814, and CV-8972 on most study endpoints were in good agreement across the three studies. In the third study, the three compounds were analyzed at equivalent mg/kg/day doses on a formula weight basis: 6 mg/kg/d for trimetazidine, 7.5 mg/kg/day for CV-8814; and 10 mg/kg/day for CV-8972. Therefore, the results from the third study are summarized here.

explanted mouse hearts = test: Langendorff ischemia-reperfusion protocol; conditions: for infarct size: 20 μM (each) perfusion, triphenyltetrazolium staining, control 68%; for reduction of myocardial infarct size: 20 μM, vs control
Experimental: Studies were conducted to evaluate the effect of CV-8814, a pFOX inhibitor, on protecting heart tissue from ischemia/reperfusion (I/R) injury. Similar studies were performed with trimetazidine (TMZ) as a representative pFOX reference compound. Studies were performed with TMZ alone and TMZ in combination with the metabolic enhancers (e.g., nicotinic acid) for a comparison of single agent and combination agent pharmacologic potencies. FIG. 25 is a schematic of the Langendorff Ischemia-Reperfusion protocol used to test the ability of various compounds to protect the heart from ischemic injury. Test compounds were dissolved at 20 μM in Krebs-Henseleit buffer and perfused through the tissue of mouse hearts at a constant pressure starting at time 0. For each treatment group, 10-18 hearts were tested. A Mikro-tip catheter was inserted into left ventricles to measure cardiac functions, including heart rate, coronary flow, left ventricular systolic and end-diastolic pressure, at the end of the baseline perfusion at 20 minutes. […] At the end of perfusion, hearts were cross-sectioned into five slices, and infarct size was measured by computerized planimetry of triphenyltetrazolium stained heart tissue sections. The concept of combining a pFOX inhibitor with metabolic enhancers (e.g. nicotinamide, nicotinic acid, and succinate) was evaluated in combination Langendorff I/R studies. The combinations included TMZ/nicotinamide/succinate (all at a concentration of 20 μM; coded TNS) and TMZ/nicotinic acid/succinate (all at a concentration of 20 μM; coded TNC).

[2] = system: cardiac glucose metabolism; test: PET imaging of 18F-FDG uptake after CV-8972 injection; type: in vivo, rat
Excerpt: (§1) The effects of CV-8972, a partial fatty acid oxidation inhibitor, on glucose and fatty acid metabolism were investigated using non-invasive positron emission tomography (PET) imaging. The PET radiotracer ^18F fluorodeoxyglucose (FDG), a radiolabeled glucose analog, was used to evaluate cardiac glucose metabolism, and the PET radiotracer ^18F fluoro-6-thia-heptadecanoic acid (FTHA), a radiolabeled long-chain fatty acid (LCFA) analog, was used to evaluate fatty acid beta oxidation. Both radiotracers are “entrapped” in cells in a way that is proportional to either glucose or fatty acid metabolism. For example, high ^18F-FDG or ^18F-FTHA signal indicates high glucose or fatty acid metabolism, respectively, while, conversely, diminished uptake indicates lower metabolism.
(§2) PET imaging with ^18F-FDG and ^18F-FTHA was performed in healthy rats. PET images were acquired dynamically for 120 minutes after tracer injection to capture dynamic changes in cardiac glucose and fatty acid metabolism. For each tracer, animals were imaged twice, once after injection of vehicle (phosphate buffered saline, PBS) or CV-8972 (80 mg/3 mL/kg), subcutaneously injected to the back of animals 15 min prior to PET imaging.
(§3) FIG. 1 is a schematic of the positron emission tomography (PET) imaging study design used to monitor the uptake of ^18F-fluorodeoxyglucose (^18F-FDG) and ^18F-14(R,S)-(18)F-fluoro-6-thia-heptadecanoic acid (^18F-FTHA) into heart tissue of rats in response to treatment with CV-8972. To monitor uptake of ^18F-FDG, rats were fasted for 16 hours prior to day 1. On day 1, rats were given phosphate-buffered saline (PBS) at time 0, and 15 minutes later ^18F-FDG was administered and traced in vivo by PET for two hours following administration. Rats were again fasted for 16 hours prior to day 3. On day 3, rats were given CV-8972 at time 0, and 15 minutes later ^18F-FDG was administered and traced in vivo by PET for two hours following administration. Immediately following the second PET scan, the animals were sacrificed, and the levels of gamma radioactivity in the blood, heart, and skeletal muscle were measured. To monitor uptake of ^18F-FTHA, rats were allowed to eat prior to day 1. On day 1, rats were given PBS at time 0, and 15 minutes later ^18F-FTHA was administered and traced in vivo by PET for two hours following administration. Rats were allowed to eat prior to day 3. On day 3, rats were given CV-8972 at time 0, and 15 minutes later ^18F-FTHA was administered and traced in vivo by PET for two hours following administration. Immediately following the second PET scan, the animals were sacrificed, and the levels of gamma radioactivity in the blood, heart, and skeletal muscle were measured.
(§4) Dynamic positron emission tomography/computed tomography (PET/CT) imaging was obtained with a Mediso nanoScan 122S PET/CT system. Cardiac glucose and fatty acid metabolisms were visualized by tracking ^18F-FDG (NCM-USA LLC, NY, USA) and ^18F-FTHA (Department of Radiology, New York University School of Medicine, NY, USA), respectively. Before the ^18F-FDG scan, rats were fasted overnight for at least 16 hours to minimize the physiological uptake of the radiotracer to cardiomyocyte. Either vehicle (phosphate buffered saline) or CV-8972 (80 mg/3 mL/kg) was subcutaneously injected to the back of animals 15 min prior to PET imaging. Animals were then placed on the scanner, and high-resolution CT images was obtained. Following, dynamic PET was started at the same time as the injection of ^18F-FDG (37 MBq, 1 mCi/0.5 mL/body) via tail vein and recorded for 120 min. Each animal underwent 2 scan sessions, one after vehicle injection and another after CV-8972 injection, with 2 or more days interval (average 2.9 days, 2-6 days). The order of the 2 imaging sessions was randomized among rats. For ^18F-FTHA (37 MBq, 1 mCi/0.5 mL/body), animals received 2 scan sessions under same conditions as those for ^18F-FDG except for fed condition. […]

[3] = system: fatty acid beta oxidation; test: PET imaging of 18F-FTHA uptake after CV-8972 injection; type: in vivo, rat
Excerpt: as §1, §2, §3, §4

[4] = mouse, iv, 10 mg/kg
[5] = system: radioactivity in the heart, skeletal muscle, and blood; test: Ex vivo quantification of radiotracer uptake by gamma counting; type: in vivo, rat
Experimental: Shortly after the final PET/CT scan, blood was taken from abdominal vein under anesthesia with isoflurane (3-5%), and then animals were euthanized by exsanguination. After thorough perfusion with PBS, the heart and skeletal muscle (right brachium) were harvested. Radioactivity in the heart, muscle, and blood was determined with a Wizard2 2480 automatic gamma counter (Perkin Elmer, Waltham, MA) and % ID/g was calculated for each organ.
The radioactivity in the heart, skeletal muscle, and blood was also determined with a gamma counter shortly after PET/CT imaging for further ex vivo validation.

[6] = 20 μM perfusion, initial single agent study
[7] = static analysis at 30 minutes, CV-8972 vs saline
[8] = two-compartment model, CV-8972 80 mg/kg s.c. vs PBS
[9] = CV-8972 80 mg/kg s.c. vs PBS, fed rats
[10] = gamma counter shortly after PET/CT, CV-8972 80 mg/kg s.c., mean±SD
[11] = gamma counting, CV-8972 vs control

COc1ccc(CN2CCN(CCO)CC2)c(OC)c1OC [CV-8814, 2-[4-[(2,3,4-trimethoxyphenyl)methyl]piperazin-1-yl]ethanol]
left ventricular fractional shortening (FS) at Week 6 [1]: 44%±3% | fibrosis of myocardial tissue after six weeks [1]: 6.6±0.6% | isovolumic relaxation time (IVRT) at Week 6 [1]: 28 ± 2 ms | isovolumic relaxation time (IVRT) at the three-week assessment [1]: 33 ± 1 ms | left ventricular ejection fraction (EF) throughout the six-week study ([1]; third study): preserved | infarct size (explanted mouse hearts): 52±4% | left ventricular developed pressure (LVDP) at 20 min (explanted mouse hearts; [6]): 48±8 mmHg | left ventricular developed pressure (LVDP) at 170 min (explanted mouse hearts; [6]): 63±5 mm Hg | coronary flow at the end of the reperfusion period (explanted mouse hearts; 20 μM perfusion, initial single agent study, control 54±6): 90±14 μl/mL | reduction of myocardial infarct size (explanted mouse hearts): ~16%

COc1ccc(CN2CCN(CCOC(=O)c3cccnc3)CC2)c(OC)c1OC [CV-8972, 2-[4-[(2,3,4-trimethoxyphenyl)methyl]piperazin-1-yl]ethyl pyridine-3-carboxylate]
left ventricular fractional shortening (FS) at Week 3 ([1]; CV-8972 10 mg/kg/day, control 37%±3%): 47%±3% | left ventricular fractional shortening (FS) at Week 6 [1]: 46%±3% | fibrosis of myocardial tissue after six weeks [1]: 6.6±0.6% | isovolumic relaxation time (IVRT) at Week 6 [1]: 31 ± 2 ms | isovolumic relaxation time (IVRT) at the three-week assessment [1]: 32 ± 1 ms | left ventricular ejection fraction (EF) throughout the six-week study ([1]; third study): preserved | heart weight to body weight ratio ([1]; third study, CV-8972 10 mg/kg/day, control 9.1±0.5): 7.4 ± 0.3 mg/g | left ventricular mass ([1]; third study, CV-8972 10 mg/kg/day, control 195±12): 156 ± 10 mg | heart weight ([1]; third study, subcutaneous osmotic minipump, CV-8972 10 mg/kg/day, control 270±14): 225 ± 11 mg | average SUV of 18F-FDG in the heart at 120 min ([2]; CV-8972 80 mg/3 mL/kg s.c. 15 min before PET, fasted healthy rats, mean±SD): 12.56±7.82 | 18F-FDG signal in the blood, single dynamic frames ([2]; CV-8972 80 mg/kg s.c. vs PBS): did not clearly affect | 18F-FDG signal in the skeletal muscle and blood, last 30 minutes (90-120 minutes) ([2]; CV-8972 80 mg/kg s.c. vs PBS): slightly lower signal | 18F-FDG uptake in skeletal muscle, single dynamic frames ([2]; CV-8972 80 mg/kg s.c. vs PBS): slightly lower | 18F-FDG uptake in the myocardium, last 30 minutes of PET acquisition (90-120 minutes) ([2]; CV-8972 80 mg/kg s.c. vs PBS): significantly higher | fold increase of heart 18F-FDG SUV at 120 min over control group ([2]; CV-8972 80 mg/kg s.c., vs PBS control 0.89±0.62): approximately 14 fold | change in 18F-FDG SUV in skeletal muscle, static analysis [2, 7]: minimal change | fold increase in 18F-FDG SUV in rat heart tissue, static analysis [2, 7]: 12 fold | 18F-FDG myocardial uptake by kinetic modeling [2, 8]: significantly higher myocardial uptake | 18F-FDG skeletal muscle uptake by kinetic modeling [2, 8]: lower | 18F-FTHA blood signal, last 30 minutes (90-120 minutes) ([3]; CV-8972 80 mg/kg s.c. vs PBS): unaffected | 18F-FTHA myocardial signal, last 30 minutes (90-120 minutes) ([3]; CV-8972 80 mg/kg s.c. vs PBS): slightly higher without reaching statistical significance | 18F-FTHA signal in the blood, single dynamic frames [3, 9]: did not clearly affect | 18F-FTHA uptake in the heart, single dynamic frames [3, 9]: no statistically significant changes | 18F-FTHA uptake in the skeletal muscle, single dynamic frames [3, 9]: slightly higher uptake | 18F-FTHA signal in the skeletal muscle, last 30 minutes (90-120 minutes) ([3]; CV-8972 80 mg/kg s.c. vs PBS, reached statistical significance): slightly higher signal | initial fold increase of 18F-FTHA PET signal in heart after CV-8972 administration ([3]; from 18F-FTHA circulating in the blood compartment, followed by washout over 120 min): ~2 fold | 18F-FTHA uptake into the myocardium and skeletal muscle by kinetic modeling ([3]; three-compartment model, CV-8972 80 mg/kg s.c. vs PBS): significantly higher uptake | conversion of CV-8972 in vivo [4]: rapidly converted to CV-8814 | mean radioactivity of the heart, 18F-FDG [5, 10]: 4.25±1.03 % ID/g | mean radioactivity of the heart, 18F-FTHA [5, 10]: 1.98±0.53 % ID/g | radioactivity of skeletal muscle and blood vs control ([5]; gamma counting, 18F-FDG and 18F-FTHA): did not show clear differences | fold of heart radioactivity over control, 18F-FDG [5, 11]: 5.6 fold | fold of heart radioactivity over control, 18F-FTHA [5, 11]: 3.6 fold

O=C(O)c1cccnc1 [Nicotinic acid, nicotinic acid, reference compound]
fibrosis of myocardial tissue after six weeks [1]: 8.2±1% | left ventricular ejection fraction (EF) throughout the six-week study ([1]; third study): neither TMZ nor nicotinic acid had a beneficial effect

COc1ccc(CN2CCNCC2)c(OC)c1OC [TMZ, trimetazidine]
fibrosis of myocardial tissue after six weeks [1]: 7.6±1% | diastolic function during TAC-induced heart failure ([1]; TMZ 6 mg/kg/d): did not preserve diastolic function | effect on FS ([1]; TMZ 6 mg/kg/d): did not have a significant effect | left ventricular ejection fraction (EF) throughout the six-week study ([1]; third study): neither TMZ nor nicotinic acid had a beneficial effect | infarct size (explanted mouse hearts): 56±3% | LVDP (explanted mouse hearts; 20 μM TMZ alone, separate study, printed as TMZ vs. control): 49±5 mm Hg | LVDP at T20 (explanted mouse hearts; 20 μM each, combination study): 56±6 mm Hg | LVDP at T170 (explanted mouse hearts; 20 μM each, combination study): 49±5 mm Hg | reduction of myocardial infarct size (explanted mouse hearts): ~9%
